From PubChem BioAssay (NCI)
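Method: 48-hour compound exposure of cells in 96-well plates, five concentrations, linear interpolation of endpoints. TGI denotes the concentration required for complete inhibition of growth.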

Legend:
Assay in all cases: NCI-60 cell line screen, 48 h
A549 NSCLC = tested on: A549 NSCLC
SF-539 CNS = tested on: SF-539 CNS
SNB-19 CNS = tested on: SNB-19 CNS
SR leukemia = tested on: SR leukemia
SNB-78 CNS = tested on: SNB-78 CNS
KM20L2 colon = tested on: KM20L2 colon
HOP-18 NSCLC = tested on: HOP-18 NSCLC
M19-MEL melanoma = tested on: M19-MEL melanoma
DMS 273 small cell lung = tested on: DMS 273 small cell lung
DMS 114 small cell lung = tested on: DMS 114 small cell lung
DLD-1 colon = tested on: DLD-1 colon

COc1ccc(C(OCC2OC(n3cc(C)c(=O)[nH]c3=O)CC2n2cc(Cn3cc(Cl)c(=O)[nH]c3=O)nn2)(c2ccccc2)c2ccccc2)cc1 (configuration not stated)
TGI (A549 NSCLC): > 100 µM | TGI (SF-539 CNS): > 100 µM | TGI (SNB-19 CNS): > 100 µM

CC(=O)c1[nH]c(NCc2ccccc2)c(C(=S)Nc2ccccc2)c1N
TGI (A549 NSCLC): 93.9 µM | TGI (SF-539 CNS): 32.1 µM | TGI (SR leukemia): > 100 µM | TGI (SNB-19 CNS): > 100 µM

CC(C)(C)OC(=O)[C@H]1CCC(=S)N1Cc1ccccc1
TGI (A549 NSCLC): > 100 µM | TGI (SF-539 CNS): > 100 µM | TGI (SR leukemia): > 100 µM | TGI (SNB-19 CNS): > 100 µM

COc1ccc(S(=O)(=O)c2nnc(S(=O)(=O)Cc3ccccc3)s2)cc1
TGI (A549 NSCLC): 49.3 µM | TGI (SF-539 CNS): 50.1 µM | TGI (SNB-19 CNS): 36.8 µM

CN1CCN(C(=S)N2CCN(C)CC2)CC1
TGI (A549 NSCLC): > 100 µM | TGI (SF-539 CNS): 45.3 µM | TGI (SR leukemia): 0.983 µM | TGI (SNB-19 CNS): > 100 µM

O=Cc1[nH]c(=O)[nH]c(=O)c1C(=O)O
TGI (A549 NSCLC): > 100 µM | TGI (SF-539 CNS): > 100 µM | TGI (SR leukemia): > 100 µM | TGI (SNB-19 CNS): > 100 µM

O=[N+]([O-])c1ccc2c(c1)C1=C(CO2)Cc2ccccc2O1
TGI (A549 NSCLC): > 100 µM | TGI (SF-539 CNS): 52.2 µM | TGI (SR leukemia): > 100 µM

Nc1nc(SC/C=C/c2ccccc2)c2[nH]cnc2n1
TGI (A549 NSCLC): > 100 µM | TGI (SF-539 CNS): > 100 µM | TGI (SR leukemia): > 100 µM | TGI (SNB-19 CNS): > 100 µM

CSc1nc(Nc2cccc(C(F)(F)F)c2)c2c(N)nn(C)c2n1
TGI (A549 NSCLC): > 100 µM | TGI (SNB-19 CNS): > 100 µM

CCCCNC(=S)Nc1nc(C(=O)NNC(=S)Nc2ccccc2)cs1
TGI (A549 NSCLC): > 100 µM | TGI (SF-539 CNS): > 100 µM | TGI (SNB-19 CNS): > 100 µM

CC(=O)c1c(C)n([O-])c2cc(Cl)c(Cl)cc2[n+]1=O
TGI (A549 NSCLC): 56.2 µM | TGI (SF-539 CNS): 72.5 µM | TGI (SR leukemia): 62.2 µM | TGI (SNB-19 CNS): > 100 µM

O=c1c(/C=C/c2c(O)ccc3ccccc23)nnc2sc(-c3cccc(Br)c3)nn12
TGI (A549 NSCLC): > 100 µM | TGI (SF-539 CNS): > 100 µM | TGI (SR leukemia): 41.1 µM | TGI (SNB-19 CNS): > 100 µM

Cc1c(N=Nc2ccc(Cl)cc2)c(-c2ccccc2)n(C2OC(CO)C(O)C(O)C2O)c(=S)c1C#N (configuration not stated)
TGI (A549 NSCLC): 35.3 µM | TGI (SF-539 CNS): 41 µM | TGI (SR leukemia): > 100 µM | TGI (SNB-19 CNS): 25.2 µM

CC1CCC(=O)C(C(=O)CC2CC(=O)N(C)C(=O)C2)C1 (configuration not stated)
TGI (A549 NSCLC): > 100 µM | TGI (SF-539 CNS): > 100 µM | TGI (SNB-19 CNS): > 100 µM

COc1cc2c(C)cc(O)cc2c2cc(O)c(C)cc12
TGI (A549 NSCLC): 23.8 µM | TGI (SF-539 CNS): 19.1 µM | TGI (SR leukemia): 6.18 µM | TGI (SNB-19 CNS): 21.4 µM

COc1ccc(-[n+]2nc(S(=O)(=O)O)c(/C=C/c3ccc(N(C)C)cc3)cc2C#N)cc1
TGI (A549 NSCLC): > 100 µM | TGI (SF-539 CNS): > 100 µM | TGI (SNB-19 CNS): > 100 µM

CC(=O)Oc1c2c(c(O)c3ccccc13)C(n1cnc3c(ncn3C3OC(CO)C4OC(C)(C)OC43)c1=N)CCC2 (configuration not stated)
TGI (SNB-78 CNS): 59.6 µM | TGI (A549 NSCLC): 35.4 µM | TGI (KM20L2 colon): 53.5 µM | TGI (SF-539 CNS): 32.2 µM | TGI (HOP-18 NSCLC): 34.6 µM | TGI (SNB-19 CNS): 30.3 µM | TGI (M19-MEL melanoma): 23.8 µM | TGI (DMS 273 small cell lung): 40.6 µM | TGI (DMS 114 small cell lung): 21.7 µM | TGI (DLD-1 colon): 27.4 µM

N#Cc1c(N)n(-c2cccc(C(=O)O)c2)c(=O)c2cc([N+](=O)[O-])ccc12
TGI (A549 NSCLC): > 100 µM | TGI (SNB-19 CNS): > 100 µM

C/C=C(/C)C(=O)O[C@@H]1CCN2CC[C@H](COC(=O)/C(=C/C)CO)C12 (some centres not stated)
TGI (A549 NSCLC): > 100 µM | TGI (SF-539 CNS): > 100 µM | TGI (SR leukemia): > 100 µM | TGI (SNB-19 CNS): > 100 µM
